# Calls of active or inactive are those of the source.
# How the values were obtained:
# [1] = Luminescence Cell-Based Dose Retest to Confirm Inhibitors of Cancer Stem Cells. [Related pubchem assays (depositor defined):AID2717, AID2721]; format: functional, Homo sapiens; settings: Homo sapiens
# [2] = biological target: T1, Microphthalmia-associated transcription factor (Homo sapiens, UniProt O75030); test: reducers of TRPM1 reporter luminescence, concentration series – cell-based, SK-MEL-5, cherry-picked, set 3, MITF inhibitor project, dose response (AID 493073); format: functional;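 note: SK-MEL-5 melanoma cells with luciferase driven by the MITF target TRPM1 promoter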
# T1 sequence (O75030 whole entry): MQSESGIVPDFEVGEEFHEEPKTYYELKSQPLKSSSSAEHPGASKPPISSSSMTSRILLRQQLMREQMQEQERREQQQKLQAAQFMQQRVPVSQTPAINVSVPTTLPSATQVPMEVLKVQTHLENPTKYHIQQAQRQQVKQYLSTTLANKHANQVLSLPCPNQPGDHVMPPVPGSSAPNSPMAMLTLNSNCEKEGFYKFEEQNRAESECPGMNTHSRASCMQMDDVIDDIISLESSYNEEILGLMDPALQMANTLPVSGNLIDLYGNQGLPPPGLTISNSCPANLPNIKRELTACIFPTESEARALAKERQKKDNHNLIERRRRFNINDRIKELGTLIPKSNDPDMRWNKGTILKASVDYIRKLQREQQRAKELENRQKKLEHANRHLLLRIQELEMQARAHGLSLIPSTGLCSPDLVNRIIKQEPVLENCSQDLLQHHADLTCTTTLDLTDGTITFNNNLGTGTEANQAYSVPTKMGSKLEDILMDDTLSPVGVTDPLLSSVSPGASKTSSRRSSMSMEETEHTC
# Vero [3] = test: cells; format: functional; settings: Chlorocebus sabaeus
# [4] = biological target: T2, Short transient receptor potential channel 4 (Mus musculus, UniProt Q9QUQ5); test: block of DAMGO-driven TRPC4 calcium entry – cell-based, HEK293 TRPC4/mu-opioid, Fluo-4 calcium, dose response (AID 434942); format: functional;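 note: potency of inhibitors blocking the TRPC4 calcium response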
# T2 sequence (Q9QUQ5 whole entry): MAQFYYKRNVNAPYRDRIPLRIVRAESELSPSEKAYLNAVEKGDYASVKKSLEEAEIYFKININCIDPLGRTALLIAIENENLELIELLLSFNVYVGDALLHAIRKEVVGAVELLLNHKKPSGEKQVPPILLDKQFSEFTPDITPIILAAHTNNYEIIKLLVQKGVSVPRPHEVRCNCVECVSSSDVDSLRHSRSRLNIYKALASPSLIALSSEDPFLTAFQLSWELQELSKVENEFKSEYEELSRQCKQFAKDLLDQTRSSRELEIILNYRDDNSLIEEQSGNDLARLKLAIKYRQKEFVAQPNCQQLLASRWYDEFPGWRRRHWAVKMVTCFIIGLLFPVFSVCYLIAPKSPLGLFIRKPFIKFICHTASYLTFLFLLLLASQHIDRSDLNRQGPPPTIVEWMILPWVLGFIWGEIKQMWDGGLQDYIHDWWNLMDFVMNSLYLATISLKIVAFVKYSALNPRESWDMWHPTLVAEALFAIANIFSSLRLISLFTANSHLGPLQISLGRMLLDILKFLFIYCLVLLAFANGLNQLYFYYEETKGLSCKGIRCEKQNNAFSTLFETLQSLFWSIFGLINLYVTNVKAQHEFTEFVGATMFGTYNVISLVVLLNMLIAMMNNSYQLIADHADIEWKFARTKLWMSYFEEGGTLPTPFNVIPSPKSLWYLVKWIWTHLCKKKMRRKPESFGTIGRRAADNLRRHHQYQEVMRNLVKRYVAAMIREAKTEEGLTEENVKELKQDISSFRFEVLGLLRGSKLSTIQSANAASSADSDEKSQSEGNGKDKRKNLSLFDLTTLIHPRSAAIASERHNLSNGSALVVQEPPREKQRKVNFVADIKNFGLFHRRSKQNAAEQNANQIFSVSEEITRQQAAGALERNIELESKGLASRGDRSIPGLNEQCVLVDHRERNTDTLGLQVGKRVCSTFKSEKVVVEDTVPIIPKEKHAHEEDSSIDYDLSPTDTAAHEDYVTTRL
# Cytochrome P450 2C19 = Cytochrome P450 2C19 (Homo sapiens, UniProt P33261); test: Cytochrome panel assay with activity outcomes. Panel member name: p450-cyp2c19 Compounds with AC50 equal or less than 10 uM are considered active; format: functional; settings: read-out: AC50
# Cytochrome P450 2C19, sequence (P33261 whole entry): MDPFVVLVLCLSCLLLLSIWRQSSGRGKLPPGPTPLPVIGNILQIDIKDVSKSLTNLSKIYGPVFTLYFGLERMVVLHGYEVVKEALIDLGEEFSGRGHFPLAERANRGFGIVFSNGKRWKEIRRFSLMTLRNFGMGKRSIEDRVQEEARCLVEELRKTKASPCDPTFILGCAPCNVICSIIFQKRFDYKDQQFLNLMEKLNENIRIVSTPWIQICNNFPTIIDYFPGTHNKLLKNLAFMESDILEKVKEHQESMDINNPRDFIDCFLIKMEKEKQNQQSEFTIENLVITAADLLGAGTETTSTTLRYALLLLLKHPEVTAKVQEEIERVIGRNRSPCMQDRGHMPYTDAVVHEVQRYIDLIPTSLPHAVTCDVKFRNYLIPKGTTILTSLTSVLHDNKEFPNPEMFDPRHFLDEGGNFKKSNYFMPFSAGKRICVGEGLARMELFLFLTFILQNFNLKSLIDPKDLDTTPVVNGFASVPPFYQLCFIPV
# Cytochrome P450 2C9 = Cytochrome P450 2C9 (Homo sapiens, UniProt P11712)
# Cytochrome P450 2C9, sequence (P11712 whole entry): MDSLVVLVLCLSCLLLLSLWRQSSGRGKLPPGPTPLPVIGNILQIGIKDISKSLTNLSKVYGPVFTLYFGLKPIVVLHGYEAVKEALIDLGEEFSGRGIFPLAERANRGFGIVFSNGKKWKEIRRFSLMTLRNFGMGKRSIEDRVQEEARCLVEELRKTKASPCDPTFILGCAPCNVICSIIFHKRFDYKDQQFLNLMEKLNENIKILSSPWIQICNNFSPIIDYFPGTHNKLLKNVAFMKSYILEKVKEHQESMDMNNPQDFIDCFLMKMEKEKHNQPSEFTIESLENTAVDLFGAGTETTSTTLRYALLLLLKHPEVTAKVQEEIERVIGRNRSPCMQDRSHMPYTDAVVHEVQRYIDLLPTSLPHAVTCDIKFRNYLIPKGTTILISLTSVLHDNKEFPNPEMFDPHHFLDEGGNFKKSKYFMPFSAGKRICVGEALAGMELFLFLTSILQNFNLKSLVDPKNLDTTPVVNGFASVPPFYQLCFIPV
# [5] = biological target: Heat shock protein HSP 90-alpha (Homo sapiens, UniProt P07900); format: functional, organism-based
# [6] = biological target: T2, Short transient receptor potential channel 4; test: calcium entry via TRPC4 opening agents – cell-based, HEK293 TRPC4/mu-opioid, Fluo-4 calcium, dose response (AID 434937); format: functional
# Vero [7] = test: viability of Vero cells under compound – cytotoxicity control for flavivirus capping enzyme inhibitors (AID 588742); format: functional; settings: Chlorocebus sabaeus
# Genome polyprotein = Genome polyprotein (dengue virus type 2, UniProt P29990); test: flavivirus cap methylation enzyme inhibition – biochemical, confirmation dose response, primary screen (AID 588689); format: functional
# Genome polyprotein, sequence (P29990 2492-3391 limits assumed): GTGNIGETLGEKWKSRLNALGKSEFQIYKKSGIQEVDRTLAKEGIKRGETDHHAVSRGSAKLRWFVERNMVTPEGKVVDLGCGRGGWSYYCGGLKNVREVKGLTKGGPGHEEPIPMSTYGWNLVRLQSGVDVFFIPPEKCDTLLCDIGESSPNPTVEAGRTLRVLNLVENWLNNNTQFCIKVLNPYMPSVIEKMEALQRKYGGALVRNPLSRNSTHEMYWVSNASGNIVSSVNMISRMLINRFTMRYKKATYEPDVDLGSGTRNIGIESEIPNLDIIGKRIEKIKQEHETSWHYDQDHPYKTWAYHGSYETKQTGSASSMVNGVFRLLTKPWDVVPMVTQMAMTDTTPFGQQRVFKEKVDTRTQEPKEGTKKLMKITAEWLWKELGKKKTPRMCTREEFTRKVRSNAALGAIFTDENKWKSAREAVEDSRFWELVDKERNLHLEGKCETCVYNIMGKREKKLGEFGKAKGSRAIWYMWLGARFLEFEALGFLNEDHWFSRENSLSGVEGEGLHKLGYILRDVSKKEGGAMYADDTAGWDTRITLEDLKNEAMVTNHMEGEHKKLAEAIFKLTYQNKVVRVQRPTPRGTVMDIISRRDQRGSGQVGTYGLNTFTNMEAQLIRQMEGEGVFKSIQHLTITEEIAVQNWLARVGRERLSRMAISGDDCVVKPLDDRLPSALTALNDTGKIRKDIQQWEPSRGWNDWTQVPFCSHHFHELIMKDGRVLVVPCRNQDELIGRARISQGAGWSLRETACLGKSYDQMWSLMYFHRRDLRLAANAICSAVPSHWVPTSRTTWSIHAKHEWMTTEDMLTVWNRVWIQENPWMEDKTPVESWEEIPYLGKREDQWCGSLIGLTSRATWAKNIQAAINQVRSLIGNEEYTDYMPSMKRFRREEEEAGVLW
# Fatty acid synthase [8] = biological target: T3, Fatty acid synthase (Homo sapiens, UniProt P49327); test: inhibition of human FAS-TE enzyme activity – biochemical, endpoint fluorescence intensity, uHTS hits, dose response (AID 624327); format: functional;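 note: fluorescence from hydrolysis of an O-methyl fluorescein acyl ester substrate by the enzyme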
# T3 sequence (P49327 whole entry): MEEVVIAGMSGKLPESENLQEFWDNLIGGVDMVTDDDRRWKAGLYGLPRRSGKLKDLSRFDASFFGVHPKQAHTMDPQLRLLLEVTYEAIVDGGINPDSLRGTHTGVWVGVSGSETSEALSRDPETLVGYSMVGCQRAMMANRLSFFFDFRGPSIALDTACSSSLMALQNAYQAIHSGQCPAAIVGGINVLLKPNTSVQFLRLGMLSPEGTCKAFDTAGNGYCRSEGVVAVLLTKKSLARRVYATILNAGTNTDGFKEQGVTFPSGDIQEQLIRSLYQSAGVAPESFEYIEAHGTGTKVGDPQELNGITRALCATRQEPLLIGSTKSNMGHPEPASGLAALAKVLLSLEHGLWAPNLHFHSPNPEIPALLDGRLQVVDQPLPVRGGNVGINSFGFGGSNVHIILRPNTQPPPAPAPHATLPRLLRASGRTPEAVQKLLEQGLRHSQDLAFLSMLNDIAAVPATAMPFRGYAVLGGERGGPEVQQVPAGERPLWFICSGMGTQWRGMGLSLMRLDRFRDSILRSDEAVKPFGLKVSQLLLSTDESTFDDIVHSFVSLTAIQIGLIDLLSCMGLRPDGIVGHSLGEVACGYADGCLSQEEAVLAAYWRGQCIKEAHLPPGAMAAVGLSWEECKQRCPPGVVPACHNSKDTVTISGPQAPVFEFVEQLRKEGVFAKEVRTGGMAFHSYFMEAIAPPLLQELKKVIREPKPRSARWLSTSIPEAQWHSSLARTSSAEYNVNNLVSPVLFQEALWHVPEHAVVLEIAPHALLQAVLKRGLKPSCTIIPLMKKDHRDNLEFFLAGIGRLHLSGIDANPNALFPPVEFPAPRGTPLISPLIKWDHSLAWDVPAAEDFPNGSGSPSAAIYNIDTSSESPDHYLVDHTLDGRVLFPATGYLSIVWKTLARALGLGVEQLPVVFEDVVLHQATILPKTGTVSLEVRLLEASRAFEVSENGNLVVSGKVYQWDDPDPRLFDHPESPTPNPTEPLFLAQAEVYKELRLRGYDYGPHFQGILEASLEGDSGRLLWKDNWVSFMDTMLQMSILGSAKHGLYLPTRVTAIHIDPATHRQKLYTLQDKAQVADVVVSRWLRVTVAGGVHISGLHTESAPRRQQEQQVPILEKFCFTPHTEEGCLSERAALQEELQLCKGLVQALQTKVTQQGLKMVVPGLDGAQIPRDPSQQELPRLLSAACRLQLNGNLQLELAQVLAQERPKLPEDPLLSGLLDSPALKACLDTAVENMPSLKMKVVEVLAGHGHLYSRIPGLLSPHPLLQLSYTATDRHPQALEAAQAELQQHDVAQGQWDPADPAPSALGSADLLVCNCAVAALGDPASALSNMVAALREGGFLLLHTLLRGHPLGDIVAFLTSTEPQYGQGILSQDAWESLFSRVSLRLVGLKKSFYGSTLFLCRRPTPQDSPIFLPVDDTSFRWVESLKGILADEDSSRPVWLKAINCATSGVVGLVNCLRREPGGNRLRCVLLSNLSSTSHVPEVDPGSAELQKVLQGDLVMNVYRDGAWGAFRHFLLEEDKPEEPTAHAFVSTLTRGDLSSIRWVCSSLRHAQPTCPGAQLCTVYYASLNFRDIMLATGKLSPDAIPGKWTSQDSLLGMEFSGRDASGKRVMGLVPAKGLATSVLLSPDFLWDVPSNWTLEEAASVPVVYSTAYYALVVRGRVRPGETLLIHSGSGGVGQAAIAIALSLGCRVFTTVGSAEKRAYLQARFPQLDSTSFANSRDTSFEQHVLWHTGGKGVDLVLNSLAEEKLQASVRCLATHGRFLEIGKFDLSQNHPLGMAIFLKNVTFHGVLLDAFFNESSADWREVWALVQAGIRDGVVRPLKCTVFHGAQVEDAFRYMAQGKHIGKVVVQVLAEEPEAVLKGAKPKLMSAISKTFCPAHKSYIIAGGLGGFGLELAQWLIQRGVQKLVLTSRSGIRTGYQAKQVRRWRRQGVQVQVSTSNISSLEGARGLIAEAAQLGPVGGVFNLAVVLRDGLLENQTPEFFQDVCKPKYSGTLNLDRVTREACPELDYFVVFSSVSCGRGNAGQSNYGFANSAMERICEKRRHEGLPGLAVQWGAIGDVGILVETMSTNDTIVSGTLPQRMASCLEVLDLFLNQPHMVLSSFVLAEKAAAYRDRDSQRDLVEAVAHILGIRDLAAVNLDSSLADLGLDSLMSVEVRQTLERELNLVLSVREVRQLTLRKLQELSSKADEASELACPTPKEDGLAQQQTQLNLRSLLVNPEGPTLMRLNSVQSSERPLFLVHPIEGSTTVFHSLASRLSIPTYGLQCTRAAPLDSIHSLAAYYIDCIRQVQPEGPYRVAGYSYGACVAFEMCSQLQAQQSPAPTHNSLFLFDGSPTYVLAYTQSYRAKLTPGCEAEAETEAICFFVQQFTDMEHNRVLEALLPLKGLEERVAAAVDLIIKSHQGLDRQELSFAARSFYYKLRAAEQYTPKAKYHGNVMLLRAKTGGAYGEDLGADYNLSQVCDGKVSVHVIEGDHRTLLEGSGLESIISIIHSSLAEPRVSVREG
# Fatty acid synthase [9] = biological target: T3, Fatty acid synthase; test: inhibition of human FAS-TE enzyme activity – biochemical, kinetic fluorescence intensity, dose response (AID 624326); format: functional;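 note: rate of fluorescence rise from hydrolysis of a fluorogenic O-methyl fluorescein ester substrate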
# [10] = HEK-293T viability loss after treatment – luminescence, T-cell screen hits, cytotoxicity control for TCR NF-kB inhibitor project, dose response (AID 489026); format: functional, cell-based;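 note: cells exposed to compound about 14 hours before the viability readout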
# Nonstructural protein 1 = Nonstructural protein 1 (Influenza A virus, UniProt Q194T2); format: functional, Influenza A virus (A/California/07/2009(H1N1))
# Nonstructural protein 1, sequence (Q194T2 whole entry): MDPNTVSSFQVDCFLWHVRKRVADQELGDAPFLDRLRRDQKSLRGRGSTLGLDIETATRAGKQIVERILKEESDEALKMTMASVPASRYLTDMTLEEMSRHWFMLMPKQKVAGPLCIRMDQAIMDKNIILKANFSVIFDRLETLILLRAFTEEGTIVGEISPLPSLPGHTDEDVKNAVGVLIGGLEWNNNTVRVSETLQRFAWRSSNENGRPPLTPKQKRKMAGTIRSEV
# cells = format: functional
# [11] = Trypanosoma cruzi growth suppression in host cells – NIH3T3 host cells, beta-gal luminescence, confirmation (AID 2044); format: functional, cell-based;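 note: intracellular parasites grown in NIH/3T3 mouse fibroblasts as host cells; luminescent beta-galactosidase reporter signal from transgenic T. cruzi replicating inside host cells; inhibitors lower the luminescence signal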
# [12] = NIH3T3 cell viability loss – ATP luminescence, mouse fibroblasts, counter-screen, dose response (AID 2010); format: functional, cell-based;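 note: cells exposed to compound for about 90 hours before reading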
# [13] = viability of PTEN-deleted HCT116 cells – cell-based, HCT116 PTEN knockout, dose response (AID 1047); format: functional;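 note: HCT116 colon tumor cells with PTEN knocked out; cells exposed to compound for 60 hours before readout; potency for loss of cell viability measured by luminescence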
# [14] = viability of HCT116 lacking mutant beta-catenin – cell-based, human colon tumor, dose response (AID 1045); format: functional;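 note: HCT116 colon tumor cells with beta catenin knocked out; cells exposed to compound for 60 hours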
# [15] = biological target: T4, Heat shock factor protein 1 (Mus musculus, UniProt P38532); test: enhancement of HSF1-driven luciferase signal – cell-based, NIH3T3, luminescence, dose retest, confirmation (AID 435004); format: functional;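 note: stress induced by proteasome inhibitor MG132 added 30 min after compound; luciferase reporter driven by HSF1 response element in NIH3T3 cells; actives raise luminescence as potentiators of the MG132 stress response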
# T4 sequence (P38532 whole entry): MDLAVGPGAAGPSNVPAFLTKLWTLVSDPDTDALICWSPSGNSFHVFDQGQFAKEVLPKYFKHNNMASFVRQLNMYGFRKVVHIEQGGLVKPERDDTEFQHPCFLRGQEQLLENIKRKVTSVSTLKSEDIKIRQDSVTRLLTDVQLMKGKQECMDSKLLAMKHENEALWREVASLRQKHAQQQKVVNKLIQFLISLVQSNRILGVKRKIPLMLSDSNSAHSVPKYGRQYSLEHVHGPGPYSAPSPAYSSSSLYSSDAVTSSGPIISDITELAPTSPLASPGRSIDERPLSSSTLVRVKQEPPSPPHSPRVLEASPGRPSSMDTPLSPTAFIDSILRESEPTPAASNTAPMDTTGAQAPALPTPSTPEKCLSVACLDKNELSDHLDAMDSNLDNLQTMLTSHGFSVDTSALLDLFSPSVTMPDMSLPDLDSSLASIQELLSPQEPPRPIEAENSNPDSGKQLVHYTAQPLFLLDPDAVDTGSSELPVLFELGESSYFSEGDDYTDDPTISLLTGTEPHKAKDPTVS
# INS1 = test: INS-1E survival protection against cytokine death – cell-based, luminescence, retest, dose response (AID 449756); format: functional; settings: Rattus norvegicus;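 note: cell death triggered by IL-1 beta plus TNF-alpha plus IFN-gamma mixture; protective hits raise ATP signal compared with cytokine alone wells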
# BJ [16] = test: BJ-TERT fibroblast viability loss – cell-based, RAS-independent, luminescence, dose response (AID 1933); format: functional; settings: Homo sapiens
# BJ [17] = test: cells; format: functional, cell-based; settings: Homo sapiens
# BJ [18] = test: BJ-TERT-LT-ST fibroblast viability loss – cell-based, RAS-independent, luminescence, dose response (AID 1935); format: functional; settings: Homo sapiens;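 note: BJ fibroblasts immortalized with TERT plus LT and ST oncogenes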
# [19] = DRD fibroblast viability loss – cell-based, non-viral oncogenic, luminescence, dose response (AID 1934); format: functional; settings: Homo sapiens
smiles,measurement,setting,value
COc1ccc(Br)cc1C(C[N+](=O)[O-])c1c(N)n(C)c(=O)n(C)c1=O (stereo unspecified),AC50,[1],3.46 µM (active)
same,AC50,[2],8.73 µM (active)
same,CC50,Vero [3],10.5 µM (active)
Cc1cccn2c(=O)c(/C=N/O)c(N3CCCC3)nc12,EC50,[4],1.88 µM (active)
same,AC50,Cytochrome P450 2C19,31.6 µM (inconclusive)
same,AC50,Cytochrome P450 2C9,inconclusive
Cc1cccc(Nc2nc(N)c([N+](=O)[O-])c(N3CCCC(C)C3)n2)c1 (stereo unspecified),AC50,[5],4.6 µM (active)
CCOC(=O)C1(CC2CC2)CCN(Cc2ccc(O)c(Cl)c2)CC1,EC50,[4],0.376 µM (active)
same,EC50,[6],0.841 µM (active)
COc1ccc2c(c1)[C@H]1[C@H](CO2)[C@H](c2ccccc2)[C@]2(C)C(=O)Nc3ccc(Cl)cc3C(=O)N12,AC50,[5],3.14 µM (active)
CCCCNC(=Nc1ccc(Cl)cc1)c1cccnc1,EC50,[4],7.5 µM (active)
Cc1ccc(S(=O)(=O)N2[C@@H](c3ccc(C(C)(C)C)cc3)C(C(=O)O)=CC[C@H]2c2ccc(Cl)cc2)cc1,CC50,Vero [7],> 40 µM (active)
same,IC50,Genome polyprotein,39.6 µM (active)
same,IC50,Fatty acid synthase [8],10.9 µM (active)
same,IC50,Fatty acid synthase [9],11.3 µM (active)
O=c1c2c(-c3ccccc3)csc2ncn1/N=C/c1cccc([N+](=O)[O-])c1O,EC50,[4],10.6 µM (active)
same,EC50,[6],9.44 µM (active)
CCOc1ccccc1NS(=O)(=O)c1ccc(-c2cnc(C3CC3)o2)cc1,IC50,[10],> 80 µM (inactive)
O=C(Nc1ccc(OC(F)(F)F)cc1)c1n[nH]cc1[N+](=O)[O-],AC50,[2],0.601 µM (active)
CCOC(=O)CC1=NN(c2ccccc2)C(=O)/C1=C\c1ccc(N(C)C)cc1,IC50,Nonstructural protein 1,15.7 µM (active)
O=C(CN1CC(=O)Oc2ccccc21)NCc1ccco1,IC50,Nonstructural protein 1,6.58 µM (active)
C[C@@]12C(=O)Nc3ccc(F)cc3C(=O)N1[C@H]1c3ccccc3OC[C@@H]1[C@@H]2c1ccccc1,AC50,[5],5.82 µM (active)
S=c1sscc1-c1ccccc1,IC50,Nonstructural protein 1,32.7 µM (active)
CCN(C(=O)c1c(-c2ccccc2Cl)noc1C)C1CCCCC1,EC50,[4],9.44 µM (active)
O=C(COC(=O)CCN1C(=O)/C(=C\C=C\c2ccccc2)SC1=S)Nc1cc(F)ccc1F,AC50,[2],7.49 µM (active)
same,IC50,cells,26.4 µM (active)
CCCc1nc2oc3c(NCCN(C)C)ncnc3c2c2c1CCCC2,EC50,[4],1.68 µM (active)
Cc1cc(C)cc(Nc2c([N+](=O)[O-])nn(-c3ccc(Cl)cc3)[n+]2[O-])c1,EC50,[11],0.387 µM (active)
same,EC50,[12],> 60 µM (not active)
same,IC50,Nonstructural protein 1,> 100 µM (active)
OC1(c2ccccc2)C[N+](c2ccccc2)=C2SCCN21 (stereo unspecified),EC50,[4],1.5 µM (active)
same,EC50,[6],1.88 µM (active)
COc1ccc(C(C)(C)C)cc1NC(=O)Nc1ccc2c(c1)OCO2,AC50,[1],6.11 µM (active)
same,AC50,[5],7.91 µM (active)
Cc1ccc(-c2cc(C(=O)N3N=C(C(F)F)CC3(O)C(F)F)c3ccccc3n2)cc1C (stereo unspecified),EC50,[11],2.45 µM (active)
same,EC50,[13],38.6 µM (active)
same,EC50,[12],> 30 µM (not active)
same,EC50,[14],39.4 µM (active)
same,AC50,[1],4.73 µM (active)
same,EC50,[15],188 µM (active)
same,AC50,[5],6.22 µM (active)
CC(C(=O)N(C)C1CCS(=O)(=O)C1)N1C(=O)/C(=C/c2ccco2)SC1=S (stereo unspecified),CC50,Vero [7],35.4 µM (active)
Cc1ccc(NS(=O)(=O)c2ccc(N3CCN(c4ccc(O)cc4)CC3)c([N+](=O)[O-])c2)c(C)c1,AC50,[5],4.4 µM (active)
COc1ccc(SN=C2C(C)=CC(=O)C=C2C)cc1,AC50,[5],6.51 µM (active)
Cc1cc(C(C)(C)C)cc(C)c1C[n+]1ccc2ccccc2c1,IC50,[10],> 80 µM (inactive)
same,AC50,INS1,1.45 µM (active)
COc1ccc(N2CCN(C(=O)c3cccc(Cn4cc(Cl)cn4)c3)CC2)cc1,IC50,Nonstructural protein 1,> 100 µM (active)
Cc1ccc(COC(=O)c2cc([N+](=O)[O-])ccc2N2CCOCC2)cc1,EC50,BJ [16],0.223 µM (active)
same,EC50,BJ [17],11 µM (inconclusive)
same,EC50,BJ [18],0.127 µM (inconclusive)
same,EC50,[19],0.529 µM (inconclusive)
same,IC50,[10],> 80 µM (inactive)
same,IC50,Fatty acid synthase [8],10.3 µM (active)
same,IC50,Fatty acid synthase [9],9.01 µM (active)
O=C(Nc1ccccc1N1CCOCC1)c1ccc([N+](=O)[O-])s1,AC50,[2],12.3 µM (active)
same,AC50,[5],7.97 µM (active)

# From ChEMBL document CHEMBL1201862, “PubChem BioAssay data set” (2004)
